The results in this text go back to patent publication US20050155093A1, “Rabbit nuclear cloning method and uses thereof” (Institute National de Ia Recherche Agronomique, priority 2002, published 2005).

The test system of this experiment is rabbit MII oocytes. Put plainly: In vitro development after parthenogenic activation of rabbit oocytes (electrical activation, then incubation in M199 with drug). Type of experiment: cell-based. How it is done: Metaphase II (MII) oocytes are collected from superovulated “New Zealand” rabbits by injections of FSH hormones followed by an injection of HCG hormone, mated with a vasectomized male 16 hours after injection of human choriogonadotrophin (hCG). The oocytes are then incubated in 0.5% hyaluronidase for 15 min (Sigma) in order to remove the cumulus cells by gentle pipeting. For the nuclear transfer, the oocytes are enucleated as previously described (Adenot et al., 1997). Simultaneously, cumulus cells are collected either from rabbits of “New Zealand” breed or from F1 rabbits obtained by a cross between rabbits of “New Zealand” breed crossed with rabbits of “Fauves de Bourgogne” breed or “New Zealand” transgenic F1 female rabbits containing a DNA construct with a sequence encoding the enhanced green fluorescence protein (eGFP) placed under the control of an EF1 (“elongation factor 1”) promoter or of an HMG promoter. The eGFP fluorescence and the PCR amplification reactions are used as markers for the cumulus donor cells. The cumulus cells are then stored at 38° C. in PBS without calcium or magnesium supplemented with 1% PVP 40 000 (polyvinylpyrrolidone (PVP)) which are then used as nucleus donor cells.
To reconstruct the embryos by nuclear transfer (NT), individual cumulus cells are inserted by micromanipulation into the zona pellucida of the enucleated oocytes. The embryos obtained by nuclear transfer (NT embryos) and the MII oocytes are activated in the following manner: 2 phases of electrical stimulations are applied 1 hour apart with a Grass stimulator (3 pulses of continuous current of 3.2 kV×cm^−1 for 20 μs each in 0.3 M mannitol containing 0.1 mM of Ca^2+ and of Mg^2+), the first phase inducing the fusion of the oocyte and of the cumulus cell. The reconstituted embryos are maintained for one hour in a culture medium at 38° C. […] After extensive washing to remove the drugs, the cells are again placed in culture in a microdrop of 50 μl of B2 medium supplemented with 2.5% fetal calf serum (FCS) in mineral oil (Sigma M8410) at 38° C. under an atmosphere saturated with 5% CO2. This activation protocol is applied to the NT embryos about 18 to 20 hours after mating of the donors.
The microtubular organization and the chromatin in the NT embryos at the 1 cell stage are observed as previously described (Adenot et al., 1997), except that the fixing state lasts for 20 min at 37° C. and that the mounting medium is Vectashield (Vector Laboratories). The rates of cleavage of the NT embryos and of the parthenotes are evaluated from 21 hours to 23 hours after electrostimulation. The rates of development up to the blastocyst stage are estimated after an in vitro culture of 3 to 4 days. For the evaluation of the number of cells, the embryos are fixed as previously described, and then stained with Hoechst […] at 1 μg/ml and then mounted on slides with wells in Vectashield and analyzed by epifluorescence. The controls are blastocysts which either developed in vitro from a 1 cell embryo collected from a superovulated rabbit or which developed in vivo from nonsuperovulated females crossed with a male and then sacrificed 3 or 4 days later.

[1] abbreviates: 30 min incubation in M199 + drug after electrical activation.
Where [2] appears, read: 1 h incubation in M199 + drug after electrical activation.
Where [3] appears, read: 1 h incubation in M199 + drug after electrical activation, cleavage at 2 cell stage.
The mark [4] stands for this setting: 4 h incubation in M199 + drug after electrical activation.

Where “and” joins values, the source holds several entries; their conditions need not be identical. Identical values can stand only once.

As for `C[C@@H]1C[C@@H]([C@H](O)CC2CC(=O)NC(=O)C2)C(=O)[C@@H](C)C1` [CHX, cycloheximide], under setting [1], the Number of blastocysts is listed as 19, the “Number of cleaved oocytes” value is 41, the “blastocysts (%)” value is recorded as 39.6% and the “cleaved oocytes (%)” value is on record as 85.4%. In addition, under setting [2], the Number of blastocysts worked out at 24, the “Number of cleaved oocytes” value worked out at 45 and the “blastocysts (%)” value was determined as 50%. Besides, the “cleaved oocytes (%)” value under setting [3] was 94% and 93.7%. Also, under setting [4], the Number of blastocysts is on record as 25, the “Number of cleaved oocytes” value is recorded as 47, the “blastocysts (%)” value amounted to 52.1% and the “cleaved oocytes (%)” value is recorded as 97.9%.
On to `CN(C)c1ncnc2nc[nH]c12` [6-DMAP, 6-dimethylaminopurine], for which, under setting [1], the Number of blastocysts is on record as 32, the “Number of cleaved oocytes” value was determined as 43, the “blastocysts (%)” value is given as 66.7% and the “cleaved oocytes (%)” value is on record as 89.6%. Besides, under setting [2], the Number of blastocysts was 38 and 35; the “Number of cleaved oocytes” value is 46 and 47; the “blastocysts (%)” value was 72.9%. In addition, under setting [3], the “cleaved oocytes (%)” value is 96% and 95.8% and 97.9%.
